Structures can show the parent of a compound that is named as a salt. Where two headings read alike, the source gives them in different places.
Assays:
P. vivax plasmepsin V [1] = target: T1, P. vivax plasmepsin V (Plasmodium vivax, UniProt A5K302); test: Surface plasmon resonance (Biacore 4000) direct binding; details: SPR; for Kd: 25° C., 1:1 interaction model, read-out: affinity (KD) for P. vivax plasmepsin V; for kd (off-rate): P. vivax plasmepsin V
T1 construct: gp67 signal peptide + FLAG tag + SUMO domain + TEV protease cleavage site (N, cleaved yes); made in house; host or cells: High Five insect cells
Experimental: Surface plasmon resonance was performed using a Biacore 4000 (GE Healthcare). Plasmepsin V was immobilized on a Series S CM5 sensor chip using amine-coupling chemistry. The surfaces of flow cells were activated for 10 min with a 1:1 mixture of 0.1 M NHS (N-hydroxysuccinimide) and 0.1 M EDC (3-(N,N-dimethylamino)propyl-N-ethylcarbodiimide) at a flow rate of […]. […] Compounds were allowed to associate and dissociate for 250 s and 600 s, respectively. Data were collected at a rate of 10 Hz and fit to a 1:1 interaction model using the Biacore 4000 Evaluation Software Version 1.0.

[2] = test system: plasmepsin V cleavage of the PEXEL in PfEMP3-GFP; test: PfEMP3-GFP PEXEL processing in P. falciparum trophozoites (immunoblot / 35S radiolabelling and immunoprecipitation); assay type: cell-based, Plasmodium falciparum
From the text: P. falciparum 3D7 expressing the PEXEL protein erythrocyte membrane protein 3 (PfEMP3) fused to green fluorescent protein (GFP) (PfEMP3-GFP) was generated previously (Boddey, J. A. et al, 2010) (see FIG. 2C).
Membranes were probed with mouse a-GFP (Roche; 1:1000), rabbit a-Aldolase (1:1000) or rabbit a-HSP70 (1:4000) antibodies followed by horseradish peroxidase-conjugated secondary antibodies (Silenius; 1:2000) and visualized using enhanced chemiluminescence (Amersham). To radiolabel P. falciparum proteins, magnet-purified trophozoites expressing PfEMP3-GFP were treated with 10 μM inhibitors for 3 hr. […] PfEMP3-GFP protein species were then immunoprecipitated from parasite lysates solubilized in 1% Triton X-100/PBS containing 1× complete protease inhibitors (Roche) using anti-GFP agarose (MBL) for 2 hours at 4° C. and proteins were resolved by SDS-PAGE, visualized by autoradiography and quantified using a GS-800 Calibrated Densitometer (Bio-Rad) (Sleebs, B. E. et al. 2014a).

[3] = test system: export of PfEMP3-GFP to P. falciparum-infected erythrocytes; test: Pulse chase of PfEMP3-GFP processing and export to infected erythrocytes (tetanolysin release); details: for export of PfEMP3-GFP to parasite-infected erythrocytes: 10 μM pre-treatment 3 hr
[4] = target: T2, recombinant P. falciparum plasmepsin V (Plasmodium falciparum, UniProt Q8I6Z5); test: Fluorogenic PEXEL cleavage assay (KAHRP FRET peptide), inhibition of recombinant P. falciparum plasmepsin V; assay type: biochemical
T2 construct: FLAG tag + SUMO domain + TEV protease cleavage site (secreted via signal peptide) (N, cleaved yes); made in house; host or cells: sf21 insect cells
Experimental: (§1) PEXEL cleavage assays (20 μl total volume) consisted of 1 ng/well of P. vivax plasmepsin V or 1.5 ng/well of P. falciparum plasmepsin V in buffer (25 mM Tris.HCl, 25 mM MES, pH 6.4) with 5 μM FRET peptide substrate (DABCYL-[…]-E-EDANS (SEQ ID NO:7) or peptides with the sequence DABCYL-[…]-E-EDANS (SEQ ID NO:8) or DABCYL-[…]-E-EDANS (SEQ ID NO:9)) (Sleebs, B. E. et al. 2014a; see FIG. 9). Samples were incubated at 37° C. for 120 min and measured using an Envision plate (Perkin-Elmer) reader (Ex 340 nm/Em 490 nm).
Reactions comprised of a fluorescent peptide of nine amino acids containing the PEXEL sequence (RTLAQ) from KAHRP. The KAHRP PEXEL peptide substrate DABCYL-[…]-E-EDANS (SEQ ID NO:7) was obtained commercially and used at a final assay concentration of 7.5 μM.
The end-point for all assays was set within the linear range of activity (approximately 1 hr.).
Tween-20 was used at 0.005% final assay concentration. Final assay buffer concentration was as follows: 25 mM Tris HCl, 25 mM MES (pH 6.4). Final assay volume was 20 μL.
An 11-point 1/3 serial dilution of compounds was generated using DMSO as a diluent (final assay concentration of 1%).
Assay reaction was incubated for 60 min at 37° C. and read using a fluorescence plate reader (Ex 340 nm, Em 495 nm). […]

P. falciparum parasites = test: P. falciparum growth assay, parasitaemia at 72 hr by flow cytometry
P. vivax plasmepsin V [5] = target: T1, P. vivax plasmepsin V; test: Kinetic characterisation of recombinant plasmepsin V (Michaelis-Menten / Lineweaver-Burk), P. vivax enzyme; assay type: biochemical; details: fluorogenic PEXEL substrate from KAHRP
Experimental: (§2) The in vitro activity of recombinant P. falciparum and P. vivax plasmepsin V was assessed against a fluorogenic peptide of nine amino acids that contained the PEXEL sequence from knob-associated histidine-rich protein (“KAHRP”) (DABCYL-[…]-E-EDANS; SEQ ID NO: 7).
(§3) Values for Km were derived from both the inverse Michaelis-Menten and the Lineweaver-Burk plots. These values were of the same magnitude for each enzyme and are also similar to the Km derived from the activity of another recombinant form of P. falciparum plasmepsin V on a different PEXEL substrate (Xiao, H. et al. 2014).
as §1

[6] = target: T2, recombinant P. falciparum plasmepsin V; test: Kinetic characterisation of recombinant plasmepsin V (Michaelis-Menten / Lineweaver-Burk), P. falciparum enzyme; assay type: biochemical; details: fluorogenic PEXEL substrate from KAHRP
Experimental: as §2, §3, §1

[7] = test system: plasmepsin V cleavage of the PEXEL in PfEMP3-GFP; details: PfEMP3-GFP processing; from Sleebs, B. E. et al. 2014; cited from earlier work
P. vivax plasmepsin V [8] = target: T1, P. vivax plasmepsin V; test: Fluorogenic PEXEL cleavage assay (KAHRP FRET peptide), inhibition of recombinant P. vivax plasmepsin V; assay type: biochemical; details: KAHRP fluorogenic substrate 7.5 μM, 60 min, 37° C., pH 6.4
[9] = read-out: EC50, inhibition of growth of P. falciparum (3D7) parasites, 3D7, chloroquine-sensitive strain, 72 hr

T2 sequence (Q8I6Z5 80-528): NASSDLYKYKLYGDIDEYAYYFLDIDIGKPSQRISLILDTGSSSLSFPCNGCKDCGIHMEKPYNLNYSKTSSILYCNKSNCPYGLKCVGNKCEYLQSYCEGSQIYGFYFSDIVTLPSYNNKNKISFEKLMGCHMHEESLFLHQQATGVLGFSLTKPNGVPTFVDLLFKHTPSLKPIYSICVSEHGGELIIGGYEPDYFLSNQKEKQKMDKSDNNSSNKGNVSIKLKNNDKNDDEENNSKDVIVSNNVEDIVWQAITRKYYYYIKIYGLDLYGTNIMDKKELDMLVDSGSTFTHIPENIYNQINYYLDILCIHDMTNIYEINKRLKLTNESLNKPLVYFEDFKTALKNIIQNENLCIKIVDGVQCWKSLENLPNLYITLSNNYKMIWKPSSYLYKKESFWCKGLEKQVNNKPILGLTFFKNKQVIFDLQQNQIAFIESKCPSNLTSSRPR
T1 sequence (A5K302 33-476, looked up, natural form): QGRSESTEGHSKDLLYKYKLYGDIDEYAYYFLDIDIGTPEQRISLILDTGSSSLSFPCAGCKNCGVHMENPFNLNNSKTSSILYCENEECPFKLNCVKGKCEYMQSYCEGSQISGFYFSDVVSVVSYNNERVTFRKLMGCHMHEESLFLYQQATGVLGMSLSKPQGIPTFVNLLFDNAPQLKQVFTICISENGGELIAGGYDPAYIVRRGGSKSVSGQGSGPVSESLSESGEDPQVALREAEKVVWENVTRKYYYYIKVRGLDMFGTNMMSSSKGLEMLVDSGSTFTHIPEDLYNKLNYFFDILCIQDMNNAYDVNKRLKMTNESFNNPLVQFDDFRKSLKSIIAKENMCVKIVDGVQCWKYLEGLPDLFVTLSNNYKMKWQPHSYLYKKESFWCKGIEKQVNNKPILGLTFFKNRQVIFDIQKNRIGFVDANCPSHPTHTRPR

| Molecule | Kd (P. vivax plasmepsin V [1]) | kd (off-rate) (P. vivax plasmepsin V [1]) | inhibition of plasmepsin V cleavage of PfEMP3-GFP ([2]; 10 μM, 3 hours, immunoblot) | time required for optimal inhibition of plasmepsin V in parasites ([2]; PfEMP3-GFP processing) | degree of PEXEL processing inhibition compared to WEHI-916 ([2]; PfEMP3-GFP, immunoblot) | inhibition of PEXEL cleavage (accumulation of 35 kDa full-length PfEMP3-GFP) ([2]; parasites expressing PfEMP3-GFP, immunoblot) | reversibility of inhibition of PEXEL cleavage after removal of inhibitor ([3]; 10 μM 3 hr, then inhibitor-free medium 30 and 60 min) | export of PfEMP3-GFP to parasite-infected erythrocytes ([3]; chase 20, 40 and 60 min) | export of PfEMP3-GFP to parasite-infected erythrocytes ([3]; chase 120 min) | increased potency against recombinant P. falciparum plasmepsin V compared to WEHI-916 ([4]; ratio of IC50 values) | EC50 (P. falciparum parasites; [9]) | EC50 (P. falciparum parasites; read-out: EC50, inhibition of growth of P. falciparum CS2, CS2, 72 hr) | EC50 (P. falciparum parasites; read-out: EC50, inhibition of growth of P. falciparum NF54, NF54, 72 hr) | EC50 (P. falciparum parasites; read-out: EC50, inhibition of growth of P. falciparum W2mef, W2mef (chloroquine-resistant), 72 hr) | Km (P. vivax plasmepsin V [5]) | Km [6] | time required for optimal inhibition of plasmepsin V in parasites [7] | IC50 ([4]; KAHRP fluorogenic substrate 7.5 μM, 60 min, 37° C., pH 6.4, read-out: IC50 against recombinant P. falciparum plasmepsin V) | EC50 (P. falciparum parasites; read-out: EC50, blocking P. falciparum growth, summary statement, strain not stated) | IC50 (P. vivax plasmepsin V [8]) |
| --- | --- | --- | --- | --- | --- | --- | --- | --- | --- | --- | --- | --- | --- | --- | --- | --- | --- | --- | --- | --- |
| CC(C)C[C@H](NC(=O)[C@@H](NC(=O)[C@H](CCON=C(N)N)NC(=O)OCc1ccccc1)C(C)C)[C@@H](O)CC(=O)NCCc1ccccc1 [WEHI-842, Cbz-Cav(NH2)—Val-Sta-NH(CH2)2Ph.TFA] | 13.4 nM | 1.11 E-03 1/s | potently inhibited plasmepsin V cleavage of PfEMP3-GFP | 3 h | 10 fold | efficiently inhibited PEXEL cleavage | reversible | dramatically reduced export | Efficient export of PfEMP3-GFP returned | 15 fold | 400 nM | 830 nM | 470 nM | 640 nM |  |  |  |  |  |  |
| DABCYL-RNKRTLAQKQ-E-EDANS [fluorogenic PEXEL substrate from KAHRP] |  |  |  |  |  |  |  |  |  |  |  |  |  |  | 6 µM | 20.2 µM |  |  |  |  |
| CC(C)C[C@H](NC(=O)[C@@H](NC(=O)[C@H](CCCNC(=N)N)NS(=O)(=O)Cc1ccccc1)C(C)C)[C@@H](O)CC(=O)NCCc1ccccc1 [WEHI-916, reference compound] | 42 nM | 2.47 E-03 1/s |  |  |  |  |  |  |  |  | 5000 nM |  |  |  |  |  | 5 h | 12.9 nM | 5000 nM | 8.2 nM |
